For test [1], the species on record is Homo sapiens. In words: Inhibitory effect on (HUVEC) human umbilical vein endothelial cell tube formation at a uM; ++ significant inhibition. It is filed as functional.
The species entered for test [2] is Rattus norvegicus. Description: In vitro cardioprotective effect was evaluated by measuring the contractile function LDH at a concentration of 10 uM. In kind it is functional, Heart.
For test [3], the species on record is Rattus norvegicus. Description: In vitro cardioprotective effect was evaluated by measuring the contractile function EDP at a concentration of 10 uM. In kind it is functional, Heart.
Test [4] concerns Rattus norvegicus. In words: In vivo anti-infarction effect by measuring the ratio of myocardial infarct zone to area at risk (IZ/AAR) in ischemic myocardium damage rat model at 0.3 mg/Kg. In kind it is functional.
The species entered for test [5] is Rattus norvegicus. Description: In vitro cardioprotective effect was evaluated by measuring the contractile function (LVDRxHR) at a concentration of 10 uM. It is filed as functional, Heart.
Test [6] is filed under the species Rattus norvegicus. In words: In vitro cardioprotective effect was evaluated by measuring the contractile function TTC at a concentration of 10 uM. It is filed as functional, Heart.
Test [7] is filed under the species Rattus norvegicus. In words: Vasorelaxant potency was measured by inhibition of […]-contracted rat aorta. It is filed as functional.
Test [8] is filed under the species Homo sapiens. In words: Inhibitory effect on (HUVEC) human umbilical vein endothelial cell tube formation at a uM; not assayed. It is filed as functional.
The test system of test [9] is Mus musculus. In words: Antitumor efficacy against A549 human non -small cell lung carcinoma was tested in nude mice xenografts at 50 mg/kg on 25th day (i.p.). As to conditions: route intraperitoneal. In kind it is functional. For orientation: Xenograft models place foreign cells or tissue in a host animal.
The species entered for test [10] is Rattus norvegicus. In words: In vitro cardioprotective effect was evaluated by measuring the contractile function LDH at a concentration of 10 uM;not assayed. It is filed as functional. Particulars: Heart.
Test [11] has as its system Mus musculus. In words: Antitumor efficacy against A549 human non -small cell lung carcinoma was tested in nude mice xenografts at 50 mg/kg on 14th day (i.p.). It is filed as functional. As to conditions: route intraperitoneal.
Test [12] deals with Mus musculus. In words: Antitumor efficacy against A549 human non -small cell lung carcinoma was tested in nude mice xenografts at 50 mg/kg on 45th day (i.p.). It is filed as functional. Particulars: route intraperitoneal.
For test [13], the system named is Rattus norvegicus. Description: In vivo anti-infarction effect by measuring the ratio of myocardial infarct zone to area at risk (IZ/AAR) in ischemic myocardium damage rat model at 0.3 mg/Kg;not assayed. It is filed as functional, organism-based.
Test [14] deals with Mus musculus. In words: Antitumor efficacy against A549 human non -small cell lung carcinoma was tested in nude mice xenografts at 50 mg/kg on 1st day (i.p.). It is filed as functional. As to conditions: route intraperitoneal.
Test [15] relates to Mus musculus. In words: Antitumor efficacy against A549 human non -small cell lung carcinoma was tested in nude mice xenografts at 50 mg/kg on 35th day (i.p.). As to conditions: route intraperitoneal. It is filed as functional.
Test [16] concerns Mus musculus. In words: Antitumor efficacy against A549 human non -small cell lung carcinoma was tested in nude mice xenografts at 50 mg/kg on 61th day (i.p.). In kind it is functional. Particulars: route intraperitoneal.

As usually defined, the IC50 is the point on the concentration scale where inhibition reaches its midpoint. A lower IC50 goes with inhibition by little substance. By inhibition in vivo is commonly meant how much of the control response was suppressed. Low readings indicate a weak effect, high ones a strong effect.

The structures appear in SMILES notation. Calls of active or inactive are those of the source. No cut-off for these calls is given here.

Consider `COC(OC)[C@@]1(C)Oc2ccc(N)cc2[C@@H](N(Cc2ncc[nH]2)c2ccc(Cl)cc2)[C@@H]1O`, for which the inhibition result in test [1] was “Significant inhibition”.
The molecule `COC(OC)[C@@]1(C)Oc2ccc([N+](=O)[O-])cc2[C@@H](N(Cc2ncc[nH]2)c2ccc(Cl)cc2)[C@@H]1O` gave an LDH in [2] of 10.7 U g-1. Also, in test [3], the EDP was determined as 14 mmHg. Besides, the IZ/AAR / AAR/LV in [4] stood at 41%. Besides, the “LV DRxHR” value in [5] is on record as 55.7%. The TTC in test [6] was 20.3 min. This molecule returned an IC50 in test [7] greater than 30 µM. Also, the inhibition result in test [1] is “Significant inhibition”.
With `COC(OC)[C@]1(C)Oc2ccc([N+](=O)[O-])cc2[C@@H](N(Cc2ncc[nH]2)c2ccc(Cl)cc2)[C@@H]1O`, in [1], the inhibition result is “Significant inhibition”.
Regarding `COc1ccc(N(Cc2ncc[nH]2)[C@H]2c3cc(N)ccc3O[C@](C)(C(OC)OC)[C@@H]2O)cc1`, the inhibition entry in test [8] is “inactive”.
In test [3], `COC(OC)[C@]1(C)Oc2ccc(N)cc2[C@@H](N(Cc2ncc[nH]2)c2ccc(Cl)cc2)[C@@H]1O` yielded an EDP of 62.3 mmHg. Besides, the inhibition in vivo at 50 mg/kg is 39.7% in test [9] (A549, ip); 49.5% in [12] (A549, ip); 39.5% in test [15] (A549, ip); 52.2% in test [16] (A549, ip). Moreover, the Body weight amounted to 26.17 g in test [9], 25.42 g in [11], 22.3 g in test [14] and 27.1 g in [15]. Further, the Tumor volume in test [9] is given as 92.2 mm**3; in test [12], 244.3 mm**3; in test [15] it was 186.8 mm**3; in [16], 494.8 mm**3. For the same molecule, the LDH result in test [10] is “inactive”. Besides, the “LV DRxHR” value in [5] stood at 19.3%. The TTC in [6] turned out to be 23.5 min. The “IZ/AAR / AAR/LV” value in test [13] was “inactive”. Moreover, the IC50 in test [7] was greater than 30 µM.
Turning to `COC(OC)[C@@]1(C)Oc2ccc(N)cc2[C@H](N(Cc2ncc[nH]2)c2ccc(OC(F)(F)F)cc2)[C@H]1O`, in test [8], the inhibition result is “inactive”.
For `COC(OC)[C@@]1(C)Oc2ccc(N)cc2[C@H](N(Cc2ncc[nH]2)c2ccc(Cl)cc2)[C@H]1O`, the inhibition result in test [1] was “Significant inhibition”.
`COC(OC)[C@]1(C)Oc2ccc(N)cc2[C@H](N(Cc2ncc[nH]2)c2ccc(Cl)cc2)[C@H]1O`: the inhibition result in test [8] was “inactive”.
On to `COC(OC)[C@]1(C)Oc2ccc([N+](=O)[O-])cc2[C@@H](N(Cc2ncc[nH]2)c2ccc(Br)cc2)[C@@H]1O`, for which the inhibition entry in test [8] was “inactive”.
With `COC(OC)[C@]1(C)Oc2ccc([N+](=O)[O-])cc2[C@@H](N(Cc2ncc[nH]2)c2ccc(C(F)(F)F)cc2)[C@@H]1O`, the inhibition entry in [8] is “inactive”.
Regarding `COC(OC)[C@]1(C)Oc2ccc([N+](=O)[O-])cc2[C@@H](N(Cc2ncc[nH]2)c2ccc(OC(F)(F)F)cc2)[C@@H]1O`, the inhibition entry in test [8] was “inactive”.

The values above are taken from ChEMBL document CHEMBL1144961, “Identification of a novel antiangiogenic agent; 4-(N-imidazol-2-ylmethyl)amino benzopyran analogues” (Bioorg Med Chem Lett, 2003).
